# Paper PMC4640066 (Nature Communications, 2015)
# Biological target: T1, γ-TuSC (Saccharomyces cerevisiae, UniProt P53378)
# T1 construct: made in house; host or cells: HighFive insect cells
# T1 sequence (P53378 1-473): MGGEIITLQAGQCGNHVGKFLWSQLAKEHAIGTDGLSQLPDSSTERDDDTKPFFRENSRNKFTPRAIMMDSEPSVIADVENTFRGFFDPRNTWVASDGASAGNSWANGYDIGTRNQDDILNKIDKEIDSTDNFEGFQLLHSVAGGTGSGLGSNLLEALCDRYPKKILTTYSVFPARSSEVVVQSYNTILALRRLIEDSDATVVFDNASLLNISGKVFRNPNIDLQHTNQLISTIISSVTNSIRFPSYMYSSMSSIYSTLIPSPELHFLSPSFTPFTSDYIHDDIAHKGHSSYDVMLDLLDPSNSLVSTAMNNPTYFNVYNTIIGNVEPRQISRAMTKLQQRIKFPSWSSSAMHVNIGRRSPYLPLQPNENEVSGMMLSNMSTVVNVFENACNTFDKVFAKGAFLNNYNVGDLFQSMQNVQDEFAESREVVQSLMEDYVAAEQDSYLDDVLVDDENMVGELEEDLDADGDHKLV
# T1 sequence (P38863 1-823 partner): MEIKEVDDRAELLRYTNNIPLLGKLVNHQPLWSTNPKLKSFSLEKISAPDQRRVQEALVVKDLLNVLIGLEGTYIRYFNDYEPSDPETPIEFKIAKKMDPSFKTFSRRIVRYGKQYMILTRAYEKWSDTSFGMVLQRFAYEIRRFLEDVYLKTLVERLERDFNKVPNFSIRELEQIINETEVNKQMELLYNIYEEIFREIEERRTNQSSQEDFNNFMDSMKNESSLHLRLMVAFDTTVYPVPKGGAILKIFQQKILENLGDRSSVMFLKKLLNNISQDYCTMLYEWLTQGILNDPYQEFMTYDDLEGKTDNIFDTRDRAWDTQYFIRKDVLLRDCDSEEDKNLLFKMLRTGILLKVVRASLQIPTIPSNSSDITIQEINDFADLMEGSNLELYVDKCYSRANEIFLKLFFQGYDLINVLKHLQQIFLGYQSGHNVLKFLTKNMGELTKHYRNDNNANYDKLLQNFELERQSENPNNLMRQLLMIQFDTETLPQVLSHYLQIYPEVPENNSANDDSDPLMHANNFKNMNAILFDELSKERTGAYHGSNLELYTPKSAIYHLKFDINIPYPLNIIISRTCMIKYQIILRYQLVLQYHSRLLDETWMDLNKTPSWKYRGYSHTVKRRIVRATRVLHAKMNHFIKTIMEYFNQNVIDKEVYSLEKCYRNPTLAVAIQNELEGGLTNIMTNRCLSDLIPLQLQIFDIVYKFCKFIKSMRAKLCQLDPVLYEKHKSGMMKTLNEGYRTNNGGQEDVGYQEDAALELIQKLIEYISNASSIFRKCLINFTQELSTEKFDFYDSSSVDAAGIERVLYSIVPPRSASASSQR
# T1 sequence (P53540 1-846 partner): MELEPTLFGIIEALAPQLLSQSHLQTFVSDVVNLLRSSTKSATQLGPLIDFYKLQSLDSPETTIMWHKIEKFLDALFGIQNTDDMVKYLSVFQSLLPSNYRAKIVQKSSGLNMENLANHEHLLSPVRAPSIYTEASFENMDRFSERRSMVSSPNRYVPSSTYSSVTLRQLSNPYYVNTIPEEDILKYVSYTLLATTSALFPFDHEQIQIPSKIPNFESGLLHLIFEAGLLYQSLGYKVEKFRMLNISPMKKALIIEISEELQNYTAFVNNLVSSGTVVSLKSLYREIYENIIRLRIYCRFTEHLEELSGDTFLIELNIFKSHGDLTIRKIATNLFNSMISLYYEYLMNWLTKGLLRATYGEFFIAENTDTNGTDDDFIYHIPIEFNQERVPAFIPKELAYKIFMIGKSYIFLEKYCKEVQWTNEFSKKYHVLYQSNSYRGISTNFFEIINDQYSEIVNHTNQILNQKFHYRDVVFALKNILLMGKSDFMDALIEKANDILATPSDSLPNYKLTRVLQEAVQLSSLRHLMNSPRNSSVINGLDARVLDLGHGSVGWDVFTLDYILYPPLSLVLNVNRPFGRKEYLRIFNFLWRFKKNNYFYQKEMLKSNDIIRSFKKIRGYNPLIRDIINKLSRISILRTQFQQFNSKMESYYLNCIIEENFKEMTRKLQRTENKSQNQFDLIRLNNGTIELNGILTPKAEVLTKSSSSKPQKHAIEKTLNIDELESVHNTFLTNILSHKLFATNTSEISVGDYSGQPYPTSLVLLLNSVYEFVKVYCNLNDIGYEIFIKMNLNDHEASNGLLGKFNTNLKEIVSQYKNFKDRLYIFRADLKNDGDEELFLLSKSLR
# Experiment: γ-TuSC capping to paclitaxel-stabilized MTs
# Format: biochemical
# Settings: 50 μM
# Procedure: γ-TuSC was diluted in RB buffer containing 10 μM paclitaxel to reach a final protein concentration of 0.5 μM and incubated with 50 μM of gatastatin for 30 min at 25 °C. Polymerized MTs were prepared by incubation of ∼5 mg ml^−1 α/β-tubulin for 30 min at 37 °C with 1 mM GTP; then paclitaxel was added (final 10 μM). GTP was removed from paclitaxel-stabilized MTs with ultracentrifugation at 240,000g for 10 min at 25 °C. Paclitaxel-stabilized MTs were added to γ-TuSC (final ∼1.2 mg ml^−1). Next, γ-TuSC was incubated with paclitaxel-stabilized MTs for 30 min; MTs and MT-bound γ-TuSC were collected with ultracentrifugation at 240,000g for 10 min at 25 °C and finally placed on poly-L-lysine-coated coverslips. After incubation for 15 min, coverslips were immediately fixed with cold MeOH (−20 °C). Coverslips were blocked with PBS containing 0.5% bovine serum albumin and were incubated with anti-α-tubulin (1:200 dilution, MBL, Cat# PM054) and anti-penta His (1:200 dilution, Qiagen, Cat# 34660) antibodies. After staining with Alexa^488-conjugated anti-rabbit IgG (1:2000 dilution, Invitrogen) and Alexa^568-conjugated anti-mouse IgG (1:2000 dilution, Invitrogen), the coverslips were washed four times with PBS and mounted with PBS. γ-TuSC bound to MTs was observed under a LAS AF 6000 fluorescence microscope (Leica Microsystems, Wetzlar, Germany).
smiles,measurement,value
"COc1cc2c(=O)c(-c3cc(OC)c4c(c3OC)OCO4)coc2cc1OCc1ccccc1 [Gatastatin, O^7-demethylbenzyl AG1]",Effect on γ-TuSC binding to MT ends,impaired γ-TuSC binding to MT ends
